Data as given in US20050043331A1, “Substituted 3-(2,5-disubstituted)pyridyl-4-aryl pyrroles for treating inflammatory diseases” (priority 2002, published 2005).
Where two headings read alike, the source gives them in different places.

Columns and labels:
TNF-α [1] = test: In-vitro whole cell assay for TNF-α inhibition (LPS-stimulated PBMC, ELISA); format: cell-based; conditions: TNF-α by ELISA
Experimental: Freshly obtained venous blood was anticoagulated with heparin, diluted with an equal volume of phosphate buffered saline (“PBS”) and placed in a sterile tube or other container. Aliquots (30 mL) of this mixture were transferred to centrifuge tubes, which were underlaid with Ficoll-Hypaque (15 mL). The prepared tubes were centrifuged at 400×g, without braking, for 30 min at room temperature. Approximately ½ to ⅔ of the platelet layer above the mononuclear cell band was removed with a pipette. The majority of the mononuclear cell layer was carefully removed using a pipette and these PBMC's were diluted with PBS and spun at 600×g for 15 min. The resulting PBMC's were washed with another portion of PBS and spun at 400×g for 10 min at room temperature. The recovered pellets were diluted in low endotoxin RPMI/1% FCS culture medium, and gave a cell concentration of 0.5-2.0×10^6 PMBC/ mL. A small volume of the suspension was removed for counting on a hemocytometer and the remaining preparation was centrifuged at 200×g for 15 min at room temperature. The recovered pelleted PMBC's were resuspended in RPMI/1% FCS to a concentration of 1.67×10^6/mL.
To run the assay, the PBMC suspension (180 μL) was transferred to duplicate wells of a 96-well flat-bottom microtiter plate and incubated for 1 h at 37° C. A solution of test compound (10 μL: prepared at 20× the desired final concentration) was added to each well and the plate was incubated for 1 h at 37° C. A solution (10 μL) of LPS in RPMI/1% FCS (200 ng/mL) was added and the wells were incubated overnight at 37° C. The supernate (100 μL) was removed from each well and diluted with RPMI/1% FCS (400 μL). The samples were analyzed for TNF-α using a commercial ELISA kit (Genzyme).

P38 = P38 (Homo sapiens, UniProt Q16539); test: P38 cell, 1 μM LJ; format: cell-based; parameters: unit not given here
TNF-α [2] = test: In vivo rodent assay for inhibition of LPS-induced TNF-α production; parameters: species or system Mice (BALB/cJ females); conditions: 10 mg/kg oral; for inhibition in vivo at 10 mg/kg: Mus musculus, po
Experimental: Mice (BALB/cJ females, Jackson Laboratories) or rats (Lewis males, Charles River) were fasted for 30 min. The animals were dosed orally on a mg/kg basis at a range of times prior to being injected intraperitoneally with LPS at 1 mg/kg and returned to their cages for 1 h. Animals were anesthetized by CO2, exsanguinated by cardiac puncture and whole blood collected (0.1-0.7 mL). The blood was allowed to clot and serum was transferred to a centrifuge tube. This sample was centrifuged, and serum was collected, aliquoted and frozen at −80° C. Samples were tested by commercial ELISA's for TNF-α (Endogen for mouse TNF-α and Biosource for rat TNF-α).

[3] = 0.5 h, 0.5 h, read-out: Mouse 10 mg/kg % inhib 0.5 h
[4] = 2 h, 2 h, read-out: Mouse 10 mg/kg % inhib 2 h

Sequence of P38 (Q16539 whole entry): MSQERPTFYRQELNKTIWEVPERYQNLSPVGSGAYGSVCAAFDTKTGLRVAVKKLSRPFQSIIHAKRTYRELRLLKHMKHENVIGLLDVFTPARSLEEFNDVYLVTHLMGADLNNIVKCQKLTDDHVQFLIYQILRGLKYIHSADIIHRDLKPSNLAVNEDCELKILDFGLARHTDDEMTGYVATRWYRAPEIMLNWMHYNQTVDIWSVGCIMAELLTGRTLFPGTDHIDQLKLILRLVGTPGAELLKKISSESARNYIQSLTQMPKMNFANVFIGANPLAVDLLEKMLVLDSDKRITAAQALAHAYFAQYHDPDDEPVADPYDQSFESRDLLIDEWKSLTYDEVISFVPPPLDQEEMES

Row | SMILES | IC50 (TNF-α [1]) [nM] | P38 cell 1 μM LJ (P38) | inhibition in vivo at 10 mg/kg (TNF-α [2]; [3]) [%] | inhibition in vivo at 10 mg/kg (TNF-α [2]; [4]) [%] | Mouse 10 mg/kg % inhib 2 h (TNF-α [2]; 2 h, 10 mg/kg) [%]
1 | COC(=O)c1c(-c2ccc(F)cc2)c(-c2ccncc2)cn1CCN1CCOCC1 [Cpd 60] | 10000 | 1 |  |  | 
2 | Fc1ccc(-c2c[nH]c(CN3CCc4ccccc4C3)c2-c2ccncc2)cc1 [Cpd 72] | 40 | 32 | 63 |  | 
3 | CN(Cc1ccccc1)Cc1[nH]cc(-c2ccc(F)cc2)c1-c1ccncc1 [Cpd 73] | 91 | 78 | 37 |  | 
4 | CCOC(=O)c1[nH]cc(-c2ccncc2)c1-c1ccc(C)cc1 [Cpd 75] | 136 | 42 |  |  | 
5 | CCOC(=O)c1c(-c2ccc(Br)cc2)c(-c2ccncc2)cn1C [Cpd 77] | 211 | 62 |  |  | 
6 | CCOC(=O)c1c(-c2ccc(C)cc2)c(-c2ccncc2)c(Br)n1C [Cpd 79] | 736 | 9 | -76 |  | 
7 | CCn1cc(-c2ccncc2)c(-c2ccc(F)cc2)c1C(=O)OC [Cpd 85] | 108 | 4 | 53 |  | 
8 | CCOC(=O)c1c(-c2ccc(F)cc2)c(-c2ccncc2)cn1C [Cpd 86] | 125 | −2 |  |  | 
9 | CN(C)C(=O)c1c(-c2ccc(F)cc2)c(-c2ccncc2)cn1C [Cpd 95] | 1380 | 21 | 33 |  | 
10 | COC(=O)c1c(-c2ccc(F)cc2)c(-c2ccncc2)c(N=C(c2ccccc2)c2ccccc2)n1C [Cpd 98] | 52 | −2 | -49 |  | 
11 | COC(=O)c1c(-c2ccc(F)cc2)c(-c2ccncc2)c(NCCN2CCCC2)n1CCN1CCOCC1 [Cpd 156] | 969 |  | 23 |  | 
12 | COC(=O)c1c(-c2ccc(F)cc2)c(-c2ccncc2)c(Nc2ccc(N3CCOCC3)cc2)n1C [Cpd 159] | 1560 |  | 29 |  | 
13 | COC(=O)c1c(-c2ccc(F)cc2)c(-c2ccncc2)c(NCc2ccc(OC)cc2)n1C [Cpd 160] | 42 |  | 79 | -46 | 
14 | CCn1c(C(=O)OC)c(-c2ccc(F)cc2)c(-c2ccncc2)c1N(C)CCN1CCOCC1 [Cpd 163] | 105 |  | 66 | 13 | 
15 | COC(=O)c1c(-c2ccncc2)c(-c2ccc(F)cc2)c(C#CCCO)n1C [Cpd 167] | 894 |  | 30 |  | 
16 | Cn1cc(-c2ccncc2)c(-c2ccc(F)cc2)c1C#N [Cpd 168] | 171 |  | 67 |  | −19
17 | COCC#Cc1c(-c2ccc(F)cc2)c(-c2ccncc2)c(C(=O)OC)n1C [Cpd 172] | 443 |  | -5 |  | 
18 | CN(CCN1CCOCC1)c1c(-c2ccncc2)c(-c2ccc(F)cc2)cn1C [Cpd 173] | 117 |  | 65 | -17 | 
19 | COC(=O)c1c(-c2ccc(F)cc2)c(-c2ccncc2)c(NCc2cccc(OC)c2)n1C [Cpd 177] | 407 |  |  | 63 | 
20 | CN(CCO)Cc1[nH]cc(-c2ccc(F)cc2)c1-c1ccncc1 [Cpd 180] | 3 |  |  | -8 | 
21 | Cn1cc(-c2ccncc2)c(-c2ccc(F)cc2)c1CNC(=O)Nc1ccccc1 [Cpd 185] | 27 |  |  | 82 | 

Now from value to compound, other results behind:

Row | IC50 (TNF-α [1]) [nM] | P38 cell 1 μM LJ (P38) | SMILES | inhibition in vivo at 10 mg/kg (TNF-α [2]; [3]) [%] | inhibition in vivo at 10 mg/kg (TNF-α [2]; [4]) [%] | Mouse 10 mg/kg % inhib 2 h (TNF-α [2]; 2 h, 10 mg/kg) [%]
22 | 4260 | 28 | COC(=O)c1c(-c2ccc(F)cc2)c(-c2ccncc2)c(N2CCN(C(=O)OC(C)(C)C)CC2)n1C [Cpd 8a] |  |  | 
23 | 51 | 12 | COC(=O)c1c(-c2ccc(F)cc2)c(-c2ccncc2)c(N)n1C [Cpd 9, 5-Amino-3-(4-fluorophenyl)-1-methyl-4-(4-pyridinyl)-1H-pyrrole-2-carboxylic acid methyl ester] | 53.9 |  | 
24 | 95 | 1 | COC(=O)c1c(-c2ccc(F)cc2)c(-c2ccncc2)c(N2CCN(C)CC2)n1C [Cpd 10, 3-(4-Fluorophenyl)-1-methyl-5-(4-methyl-1-piperazinyl)-4-(4-pyridinyl)-1H-pyrrole-2-carboxylic acid methyl ester] | 89 |  | 
25 | 1480 | 18 | CNC(=O)c1c(-c2ccc(F)cc2)c(-c2ccncc2)cn1C [Cpd 76] | 67 | 78 | 
26 | 17 | 32 | COC(=O)c1c(-c2ccc(F)cc2)c(-c2ccncc2)c(N2CCCC2)n1C [Cpd 80] | -38 |  | 
27 | 47 | 12 | COC(=O)c1c(-c2ccc(F)cc2)c(-c2ccncc2)c(N2CCOCC2)n1C [Cpd 81] | -41 |  | 
28 | 1890 | 8 | Cn1c(Br)c(-c2ccncc2)c(-c2ccc(F)cc2)c1C(=O)OC(C)(C)C [Cpd 82] | -7 |  | 
29 | 543 | 11 | CNC(=O)c1c(-c2ccc(F)cc2)c(-c2ccncc2)c(Br)n1C [Cpd 84] | 53 |  | 
30 | 86 | 4 | CCOC(=O)c1c(-c2ccc(F)cc2)c(-c2ccncc2)c(Br)n1C [Cpd 87] |  |  | 
31 | 10000 | 7 | CCCNC(=O)c1c(-c2ccc(F)cc2)c(-c2ccncc2)c(N2CCNCC2)n1C [Cpd 88] |  |  | 
32 |  | 22 | CC(C)NC(=O)c1c(-c2ccc(F)cc2)c(-c2ccncc2)c(N2CCNCC2)n1C [Cpd 89] |  |  | 
33 |  | 15 | CC(C)C(C)NC(=O)c1c(-c2ccc(F)cc2)c(-c2ccncc2)c(N2CCNCC2)n1C (stereo not drawn) [Cpd 90] |  |  | 
34 | 40 | 29 | CC(=O)c1c(-c2ccc(F)cc2)c(-c2ccncc2)c(N2CCNCC2)n1C [Cpd 91] | 39 |  | 
35 | 43 | 6 | CC(=O)c1c(-c2ccc(F)cc2)c(-c2ccncc2)c(N2CCN(C(C)=O)CC2)n1C [Cpd 92] | 61 | 28 | 
36 | 420 | 10 | Cn1c(C(=O)OC(C)(C)C)c(-c2ccc(F)cc2)c(-c2ccncc2)c1N1CCNCC1 [Cpd 94] | 25 |  | 
37 | 301 | 1 | CN(C)C(=O)c1c(-c2ccc(F)cc2)c(-c2ccncc2)c(Br)n1C [Cpd 97] | -41 |  | 
38 | 36 | 11 | Cn1c(C(=O)C2CC2)c(-c2ccc(F)cc2)c(-c2ccncc2)c1N1CCN(C(=O)C2CC2)CC1 [Cpd 107] |  |  | 
39 | 625 |  | Cn1c(Br)c(-c2ccncc2)c(-c2ccc(F)cc2)c1C#N [Cpd 170] | 22 |  | 
40 | 32 |  | COC(=O)c1c(-c2ccncc2)c(-c2ccc(F)cc2)c(C#CCCN2CCOCC2)n1C [Cpd 175] |  | -4 | 
41 | 34 |  | C=CC#Cc1c(-c2ccc(F)cc2)c(-c2ccncc2)c(C(=O)OC)n1C [Cpd 176] |  | -20 | 
42 | 370 |  | CC(=O)c1c(-c2ccc(F)cc2)c(-c2ccncc2)c(N2CCN(C)CC2)n1C [Cpd 178] |  | 40 | 
43 | 30 |  | CCOC(=O)N1CCN(c2c(-c3ccncc3)c(-c3ccc(F)cc3)c(C(=O)OC)n2C)CC1 [Cpd 179] |  | 8 | 
44 | 5 |  | COC(=O)CN1CCN(c2c(-c3ccncc3)c(-c3ccc(F)cc3)c(C(=O)OC)n2C)CC1 [Cpd 181] |  | 26 | 
45 | 154 |  | CC(=O)N1CCN(c2c(-c3ccncc3)c(-c3ccc(F)cc3)c(C#N)n2C)CC1 [Cpd 182] |  | 81 | 
46 | 80 |  | CN1CCN(c2c(-c3ccncc3)c(-c3ccc(F)cc3)c(C#N)n2C)CC1 [Cpd 183] |  | 47 | 
47 | 7.7 |  | COC(=O)c1c(-c2ccc(F)cc2)c(-c2ccncc2)c(C#CCN2CCN(C)CC2)n1C [Cpd 184] |  | 57 | 
48 | 18 |  | Cn1c(C#N)c(-c2ccc(F)cc2)c(-c2ccncc2)c1N1CCNCC1 [Cpd 186] |  | 67 | 
